Patent EP2386565A2, “Compounds and methods to inhibit or augment an inflammatory response” (Cambridge Enterprise Ltd., priority 1999, dated 2000)
Where “and” joins values, the source holds several entries; their conditions need not be identical. Identical values can stand only once. Positions of bridges follow the written chain, without caps; N, C: chain ends. Non-standard residues stand in square brackets, D forms with d. Residues, ends and D or L forms follow the SMILES beside them.

Assays:
[1] = system: SDF-1α induced human monocyte migration; assay: Migration of freshly prepared peripheral blood monocytes, SDF-1α; type: cell-based
Procedure: Agents may also be screened in a chemotactic assay which employs human neutrophils, eosinophils, mast cells, basophils, platelets, lymphocytes or monocytes. For monocytes, 9 mls of fresh blood are transferred to a tube containing 1 ml of 3.8% sodium citrate, and left at room temperature for 15 minutes. Five mls of this anti-coagulated blood are carefully layered over 3.5 ml Polymorphprep® (Nycomed Pharma, Oslo), and centrifuged at 500 g for 35 minutes per the manufacturer's instructions. The top band at the sample/medium interface contains monocytes. The monocytes are carefully removed with a glass pipette, and reconstituted to the original volume (5 ml). The cells are washed with PBS plus 10% fetal calf serum, and centrifuged at 400 g for 10 minutes. The washing step is repeated three times before the cells are counted. Cells are resuspended at 1 × 10^7 cells/ml in RPMI-1640 + 10% fetal calf serum (FCS). The monocytes are cultured for two days at 37°C in a humidified atmosphere of 5% CO2-
On day 2, the cells are counted, spun down, and reconstituted to 1 × 10^7 cells/ml in Gey's balanced salt solution + 1 mg/ml bovine serum albumin (BSA). […]

B cells = type: cell-based
[2] = system: SDF-1 induced calcium flux; assay: Intracellular calcium flux, SDF-1 as agonist; type: cell-based
α2-adrenoceptors = assay: Competition of 3H-RS-79948-197 binding to membranes; details: 100 µM highest concentration tested
Procedure: For α2-adrenoreceptor binding, membranes (A-213, RBI/Sigma)) are diluted into binding buffer (75 mM Tris pH 7.4, 12.5 mM MgCl2 and 2 mM EDTA). For example, 10 µl of membranes are diluted in 500 µl of binding buffer (i.e., 1:50 dilution), which is aliquoted into tubes. Cold competitor or test competitor is added, for example, 5 µl of 1 mM oxymetazoline (O-110, RBI/Sigma, 1 mM stock in MilliQ water). Radioligand is then added (^3H-RS-79948-197, TRK 1036, Amersham, 50 µCi in 250 µl, 2.1 µM at 95 Ci/mmol). For competition studies, 1 nM is used. A 100x stock (i.e., 100 nM) is made by diluting the commercial stock 1:20 in binding buffer, and 5 µl is added to every tube. Control tubes have radioligand but no membranes. The mixtures are vortexed, then spun very briefly. The mixtures are then incubated for 1 hour at 27°C in a water bath. The mixture is filtered through GF/C filters over a vacuum. Each filter is pre-soaked in polyethyleneimine (0.3% in water; add 1 ml of 10% stock (P-261; RBI/Sigma) to 33 ml of MilliQ water). The tubes are washed with 2-3 ml of wash buffer (50 mM Tris pH 7.4) and the wash filtered. The filters are then rinsed with 3 × 5 ml of wash buffer, air dried, placed in a scintillation vial and 4.5 ml of scintillant added. The activity on the filter is then determined.

[3] = 8.8 mg i.v. bolus
[4] = system: ovalbumin-induced pulmonary inflammation, IgE, IL-4 and recall responses; assay: Ovalbumin-induced asthma / hypersensitivity model; type: in vivo, mice; details: Group 4: Ova on days 8, 15, 18, 21 & 35, treat BID 14 days, sacrifice day 35 (recent Ova challenge), 0 µg/ml Ova

Row | SMILES | % inhibition at 100 µM versus SDF-1α [1] | proliferation of B cells to tetanus toxoid (in words) (B cells) | SDF-1 induced calcium flux (in words) [2] | ED50 for competition of RS79943 binding to α2-adrenoceptors (α2-adrenoceptors) [µM] | time until serum concentrations decline below LLOQ (in words) [3] | IL-4 Assays, pg/ml IL-4, individual mice m1-m4 [4] | Total IgM + IgG (1 week splenocyte cultures), individual mice m1-m4 ([4]; listed as CRD-Leu4Ile11Cys13 peptide 3(3-12)[MCP])
1 | CC[C@H](C)[C@H](NC(=O)[C@H](C)NC(=O)[C@H](CC(=O)O)NC(=O)[C@@H]1CCCN1C(=O)[C@H](CCC(N)=O)NC(=O)[C@H](C)N)C(=O)N[C@@H](CC(N)=O)C(=O)N[C@@H](C)C(=O)N1CCC[C@H]1C(=O)N[C@H](C(=O)N[C@H](C(=O)N[C@@H](CS)C(=O)N[C@@H](CS)C(=O)O)[C@@H](C)O)C(C)C [Peptide 1] (H-AQPDAINAPVTCC-OH; N-terminus and C-terminus assumed) | n.s. |  |  |  |  |  | 
2 | CC[C@@H](C)[C@H]1NC(=O)[C@@H](CCC(N)=O)NC(=O)[C@H](N)CSSC[C@H](C(N)=O)NC(=O)[C@@H](CC(C)C)NC(=O)[C@@H](CC(=O)O)NC(=O)[C@H]2CCCN2C(=O)[C@@H](CCCCN)NC(=O)[C@@H](CCC(N)=O)NC(=O)[C@@H](CCCCN)NC(=O)[C@@H](Cc2c[nH]c3ccccc23)NC1=O (H-[dC][dQ][dI][dW][dK][dQ][dK][dP][dD][dL][dC]-NH2; disulfide 1-11) |  | no effect | did block | >100 | within four hours | 2.61 pg/mL and 1.11 pg/mL and 5.08 pg/mL and 2.88 pg/mL | 15.32 and 25.86 and 14.87 and 12.60
